From paper PMC6039436, “Radiobrominated benzimidazole-quinoline derivatives as Platelet-derived growth factor receptor beta (PDGFRβ) imaging probes” (Scientific Reports, 2018)

Experiments:
[1] = n-octanol/phosphate buffer partition coefficient; assay type: physicochemical; settings: n-octanol / 0.1 M phosphate buffer pH 7.4; read-out: n-octanol/phosphate buffer partition coefficient (log P)
Method: The n-octanol/phosphate buffer partition coefficients of [^77Br]2 were 2.36 ± 0.06 which were lower than [^77Br]3 (3.02 ± 0.04). These values are lower than radioiodinated compounds, [^125I]4 and [^125I]5 at 2.71 ± 0.03 and 3.19 ± 0.17, respectively.
Partition coefficients of [^77Br]2 and [^77Br]3 into n-octanol and 0.1 M phosphate buffer (PB) pH 7.4 were determined using the method described previously. The measurement was performed in quadruplicate. The partition coefficient was determined by calculating the ratio of cpm/mL of n-octanol to that of buffer and expressed as log P. Radioactivity of each layer were counted by a gamma counter.

BxPC3-luc cells = experiment: In vitro blocking study; assay type: cell-based; settings: inhibitor 1, 2 or 3 at 10 µM, 10 min pretreatment
Method: Blocking studies using 1, 2, and 3 were performed (Fig. 6). Pretreatment of an excess amount of 1 or 2 decreased uptakes of [^77Br]2 in BxPC3-luc cells. The uptake of [^77Br]3 was inhibited by a pretreatment using 1 or 3 in the same way.
Figure 6 In vitro blocking studies of (a) [^77Br]2 and (b) [^77Br]3 in BxPC3-luc and MCF7 cells. Data were presented as mean ± SD for three samples. Significance was determined using a one-way ANOVA followed by Dunnett’s post hoc test (^*p < 0.001, vs control [^77Br]2 or [^77Br]3).
For in vitro blocking experiment, inhibitor (1, 2, or 3 with final concentration 10 µM) in 1 mL of medium without FBS was added to wells containing 2 × 10^5 cells/well. After 10 min incubation, [^77Br]2 or [^77Br]3 (3.7 kBq/well) in 1 mL of medium without FBS was added to each well. Radioactivity and protein concentration in the cells were determined by the same method above-mentioned.

BxPC3-luc tumor = experiment: In vivo blocking study in tumor-bearing mice; set-up: species or system BALB/c nu/nu mice; settings: 1 h postinjection
Method: The tumor uptake of both the control and blocking groups was 1.61 ± 0.24 and 0.96 ± 0.20% ID/g, respectively. Thus, the figures are shown as not only % ID/g but also as tumor-to-blood ratio.
Figure 7 (a) Tumor uptake and (b) tumor/blood uptake ratios of [^77Br]2 and [^125I]4 at 1 h postinjection with 1 (40 mg/kg) (blocking group) or no treatment control group. Data were presented as means ± SD for three or four mice. Significance was determined using an unpaired Student’s t-test (^*p < 0.05, ^**p < 0.01).
For in vivo blocking studies, the tumor-bearing mice were intraperitoneally injected with 200 µL of 1 (40 mg/kg in 15% ethanol and 85% water) 1 h before intravenous injection of 100 µL of saline solution containing [^77Br]2 and [^125I]4 or [^77Br]3 and [^125I]5 (74 kBq, respectively), 1% tween-80 and 10% ethanol. At 1 h postinjection of radiotracers, the mice were sacrificed.
Tissues in mice were resected and weighed. The radioactivity of the tissues was counted by a gamma counter and counts were corrected for background radiation. The data were expressed as percent injection dose per gram tissue (%ID/g).

COCCOc1ccc2c(c1)ncn2-c1ccc2c([77Br])ccc(N3CCC(N)CC3)c2n1 [[^77Br]2, [^77Br]1-{5-Bromo-2-[5-(2-methoxyethoxy)-1H-benzo[d]imidazol-1-yl]quinoline-8-yl}piperidin-4-amine]
logP [1]: 2.36 ± 0.06
Uptake in BxPC3-luc cells after pretreatment with excess inhibitor (BxPC3-luc cells): decreased
Tumor-to-blood ratio, blocking group vs control (BxPC3-luc tumor; pretreatment with 1 (40 mg/kg)): significantly reduced
Tumor uptake, blocking group (BxPC3-luc tumor; pretreatment with 1 (40 mg/kg, intraperitoneal, 1 h before)): 0.96 ± 0.20 % ID/g

COCCOc1ccc2c(c1)ncn2-c1ccc2cccc(N3CCC(NC(=O)c4cccc([77Br])c4)CC3)c2n1 [[^77Br]3, [^77Br]-N-3-bromobenzoyl-1-{2-[5-(2-methoxyethoxy)-1H-benzo[d]imidazol-1-yl]quinolin-8-yl}-piperidin-4-amine]
logP [1]: 3.02 ± 0.04
Uptake in BxPC3-luc cells after pretreatment with excess inhibitor (BxPC3-luc cells): inhibited
